This note sets out measurements from PubChem BioAssay AID434923 (Broad Institute, 2010).

One may read the EC50 as the concentration needed to bring the measured effect to its halfway point.

In the assay the test system is NIH-3T3 fibroblasts viability, Alamar Blue fluorescence, 48 h. The experiment in a line: NIH-3T3 fibroblast cytotoxicity, dose response, cytotoxicity control for reversing antifungal drug resistance, cell-based, Alamar Blue fluorescence (AID 434923). (In general: The colour change of resazurin is a common sign of viable cells or microbes.)

Records with an inconclusive call do not appear. Activity calls are given as the source filed them.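 Rule for the calls: active = fitted EC50 at most tenfold above the highest tested dose; inconclusive = flat fit with 30 to 70% signal loss, or poor fit; inactive = the rest.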 Some results are limits rather than exact numbers.

In the case of `O=C(Nc1nnc(-c2ccco2)o1)c1ccc(Cl)cc1`, the EC50 is > 26 µM (inactive). As for `O=C(Nc1nnc(CCc2ccccc2)s1)c1ccco1`, the EC50 is > 26 µM (inactive). The value for `CCOC(=O)c1c(-c2ccccc2Cl)cn2ccccc12` was > 26 µM (inactive); that for `O=C(NNC1=C(C(=O)C(F)(F)F)CCC1)c1ccc(Cl)cc1` was > 26 µM (inactive); that for `Cc1nc2ccccc2cc1OCc1ccc(F)cc1` was > 26 µM (inactive).

Regarding `CCCC(=O)NC(c1ccccc1)c1ccc2cccnc2c1O` (stereo not given), the EC50 was > 26 µM (inactive). The value for `O=C(Nc1nnc(-c2ccc3c(c2)CCCC3)o1)c1ccc(Cl)cc1Cl` was > 26 µM (inactive); that for `COc1cc2c(cc1NC(=O)c1ccco1)CCCC2` was > 26 µM (inactive); that for `O=C(Oc1c(Cl)cc(Cl)c2cccnc12)c1cccs1` was 21.8 µM. In the case of `Cc1ccc(Nc2nc(N)c([N+](=O)[O-])c(N3CCC(C)CC3)n2)cc1C` it was > 26 µM (inactive); in that of `CCOC(=O)N1C(=O)C2(CCCCC2)N(c2ccc(C)cc2)C1=S`, > 26 µM (inactive). For `Clc1ccc2c(c1)C(c1cccs1)=NNC(c1cccnc1)=N2`, the EC50 is > 26 µM (inactive).

As for `O=C(Nc1sc2c(c1C(=O)c1ccc(Cl)cc1)CCCC2)c1cccnc1`, the EC50 is > 26 µM (inactive). For the compound `Cc1ccc(/C=C/C(=O)c2ccccc(=O)c2O)cc1C`, the EC50 was > 26 µM (inactive). In the case of `CC(C)COCc1ccc(O)c2ncccc12` it was less than 0.1 µM. In the case of `O=C(Nc1nnc(SCc2ccc(Cl)cc2)s1)c1ccc2ccccc2n1` it was 12 µM; in that of `COc1ccc(-c2nnc(NC(=O)c3ccc(F)cc3)o2)cc1`, > 26 µM (inactive); in that of `CCc1ccc2c(c1)/C(=C/C(=O)c1cccs1)C(=O)N2`, 14 µM. As to `O=C(Nc1nc(-c2ccccn2)cs1)c1ccc(Br)s1`, the EC50 is > 26 µM (inactive). In the case of `COc1ccc(-n2nc(C(=O)NCC(=O)N3CCN(c4ccccc4)CC3)c3ccccc3c2=O)c(OC)c1` it was > 26 µM (inactive); in that of `CC(C)N1CCc2c(sc(NC(=O)c3nc4ccccc4s3)c2C(N)=O)C1`, > 26 µM (inactive); in that of `CCCC(=O)NC(c1ccc(Cl)cc1)c1ccc2cccnc2c1O` (stereo not given), 3.44 µM. On to `Nc1nccnc1C(=O)Nc1nnc(SCc2ccc(Cl)cc2)s1`, for which the EC50 was > 26 µM (inactive). Regarding `O=C1/C(=C\c2ccccc2)CCc2c1[nH]c1ccccc21`, the EC50 is > 26 µM (inactive).

As for `c1ccc2c(c1)OCC(CNc1ncnc3sccc13)O2` (stereo not given), the EC50 is > 12 µM (inactive).
